The text below walks through data of PMC11794977, “Inhibitory Potential and Binding Thermodynamics of Scyllatoxin‐Based BH3 Domain Mimetics Targeting Repressor BCL2 Proteins” (Journal of Molecular Recognition, 2025).

Where a SMILES comes first, the peptide text is derived from it.

Assay [1] concerns the target Bcl‐2‐ΔTM (UniProt P10415). The assay can be described thus: Isothermal titration calorimetry (ITC). The assay is classed as binding. As to conditions: 25°C; for n (number of sites): 20 μM Bcl‐2‐ΔTM in cell, 200 μM peptide injected; for n (number of sites) / TΔS / ΔH: binding buffer pH 8.0, ± SD, SD; for ΔG: binding buffer pH 8.0, calculated as ΔH − TΔS. How it is done:
All ITC experiments were performed in triplicate using a MicroCal 200 ITC instrument (Malvern Panalytical) at 25°C. To initiate ITC experiments, the sample cell was filled with 250 μL of binding buffer supplemented with 20 μM Bcl‐2‐ΔTM. Acetylated peptides were then diluted to a final concentration of 200 μM in binding buffer and injected into the sample cell at 2 μL volumes using a 6 s injection time and a 150 s delay between each injection. Data analysis was performed using MicroCal Origin software v7.0. Non‐linear curves were fit using Equation (3) adapted from the instrument manual: (3) ΔQ=nMtΔHVo/21+Xt/nMt+1/nKaMt−1+Xt/nMt+1/nKaMt^2−4Xt/nMt where, ΔQ is the heat content released or absorbed by each injection. ΔH is the enthalpy change of ligand binding and M t is bulk concentration of Bcl‐2‐ΔTM. V o is the cell volume of Bcl‐2‐ΔTM and K a is the affinity constant. X t is bulk concentration of peptide and n is the number of sites occupied by the peptide. Dissociation constants (K d) for all peptides were calculated by taking the reciprocal of the K a .
ΔG values were calculated from the Gibbs free energy Equation (4) using Origin‐fitted values of ΔH and program‐calculated values of ΔS. (4) ΔG=ΔΗ−ΤΔS

Assay [2] concerns the target Bcl‐2‐ΔTM (UniProt P10415). The assay can be described thus: FP competitive binding assay. As to conditions: fluorescence polarization; 100 nM Bcl‐2‐ΔTM and 25 nM ^FluBax‐BH3^ΔB pre-incubated 1 h, competitor 100 μM to 2.3 pM, further 1 h, ambient temperature; binding buffer 50 mM Tris, 100 mM NaCl, pH 8.0; triplicate; read-out: IC50 (competition with ^FluBax‐BH3^ΔB for Bcl‐2‐ΔTM). How it is done: FP competitive binding assays were performed in triplicate on black 384‐well plates (#3575, Corning, Corning, NY) using a SpectraMax M5e multi‐mode plate reader (Molecular Devices, Sunnyvale, CA). For these experiments, 100 nM Bcl‐2‐ΔTM and 25 nM ^FluBax‐BH3^ΔB were initially co‐incubated for 1 h in binding buffer at ambient temperature in the dark. Following pre‐incubation, serial dilutions of acetylated peptides (100 μM to 2.3 pM) were added, and the solutions were allowed to incubate for an additional 1 h at ambient temperature in the dark. This incubation time was deemed sufficient for binding reactions to reach equilibrium, as judged by an absence of change in the observed polarization value of the sample with the lowest protein concentration over 4 h (data not shown). Following incubation, the fluorescence polarization of each sample was measured using an excitation wavelength of 498 nm and an emission wavelength of 525 nm. An average of 100 reads were recorded for each well. […]
For orientation: Polarisation of emitted light reports the rotation of a fluorescent probe.

Sequence of Bcl‐2‐ΔTM (P10415 whole entry, stated change not applied): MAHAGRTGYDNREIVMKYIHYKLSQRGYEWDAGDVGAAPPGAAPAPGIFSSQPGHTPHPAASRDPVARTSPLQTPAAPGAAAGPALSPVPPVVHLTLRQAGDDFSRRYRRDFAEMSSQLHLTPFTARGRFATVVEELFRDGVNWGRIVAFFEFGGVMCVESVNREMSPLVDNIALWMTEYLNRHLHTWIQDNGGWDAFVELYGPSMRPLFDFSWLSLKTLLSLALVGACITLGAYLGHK

Regarding `CC[C@H](NC(=O)[C@H](CO)NC(=O)CNC(C)=O)C(=O)N[C@@H](CCCCN)C(=O)N[C@@H](CCCCN)C(=O)N[C@@H](CC(C)C)C(=O)N[C@@H](CO)C(=O)N[C@@H](CC)C(=O)N[C@@H](CC)C(=O)N[C@@H](CC(C)C)C(=O)N[C@@H](CCCCN)C(=O)N[C@@H](CC)C(=O)N[C@H](C(=O)NCC(=O)N[C@@H](CC(=O)O)C(=O)NCC(=O)N[C@@H](CC(C)C)C(=O)N[C@@H](CC(C)C)C(=O)NCC(=O)N[C@@H](CCCCN)C(=O)N[C@@H](CC)C(=O)N[C@H](C(=O)NCC(=O)N[C@@H](CC(=O)O)C(=O)N[C@@H](CCCCN)C(=O)N[C@@H](CC)C(=O)N[C@@H](CCC(=O)O)C(=O)N[C@@H](CC)C(=O)N[C@H](C(=O)N[C@@H](CCCCN)C(=O)N[C@@H](Cc1c[nH]cn1)C(N)=O)C(C)C)[C@@H](C)CC)[C@@H](C)CC` [^AcScTx‐Bax^ΔΔΔ] (HELM PEPTIDE1{[ac].G.S.[Abu].K.K.L.S.[Abu].[Abu].L.K.[Abu].I.G.D.G.L.L.G.K.[Abu].I.G.D.K.[Abu].E.[Abu].V.K.H.[am]}$$$$V2.0), at Bcl‐2‐ΔTM [1] (3 trials), the “n (number of sites)” value came out at 0.90 ± 0.09, the TΔS was 4.64 ± 0.11 kcal/mol and the ΔH was -3.85 ± 0.33 kcal/mol. For the same molecule, the ΔG at Bcl‐2‐ΔTM [1] (± SD, 3 trials) is -8.49 ± 0.33 kcal/mol. Moreover, the “enthalpic contribution less favorable than with ^AcBax‐BH3^ΔB” value at Bcl‐2‐ΔTM [1] (versus ^AcBax‐BH3^ΔB) is on record as 1.58 kcal/mol. Further, at Bcl‐2‐ΔTM [1] (versus ^AcScTx‐Bax^ΔΔ,8–26), the “difference in ΔG, binds more favorably than ^AcScTx‐Bax^ΔΔ,8–26” value is approximately 1 kcal/mol.
Turning to `CC[C@H](NC(=O)[C@H](CO)NC(=O)CNC(C)=O)C(=O)N[C@@H](CCCCN)C(=O)N[C@@H](CCCCN)C(=O)N[C@@H](CC(C)C)C(=O)N[C@@H](CO)C(=O)N[C@H]1CSSC[C@@H](C(=O)N[C@@H](CCC(=O)O)C(=O)N[C@@H](CC)C(=O)N[C@H](C(=O)N[C@@H](CCCCN)C(=O)N[C@@H](Cc2c[nH]cn2)C(N)=O)C(C)C)NC(=O)[C@H](CCCCN)NC(=O)[C@H](CC(=O)O)NC(=O)CNC(=O)[C@H]([C@@H](C)CC)NC(=O)[C@H](CC)NC(=O)[C@H](CCCCN)NC(=O)CNC(=O)[C@H](CC(C)C)NC(=O)[C@H](CC(C)C)NC(=O)CNC(=O)[C@H](CC(=O)O)NC(=O)CNC(=O)[C@H]([C@@H](C)CC)NC(=O)[C@H](CC)NC(=O)[C@H](CCCCN)NC(=O)[C@H](CC(C)C)NC(=O)[C@H](CC)NC1=O` [^AcScTx‐Bax^ΔΔ,8–26] (HELM PEPTIDE1{[ac].G.S.[Abu].K.K.L.S.C.[Abu].L.K.[Abu].I.G.D.G.L.L.G.K.[Abu].I.G.D.K.C.E.[Abu].V.K.H.[am]}$PEPTIDE1,PEPTIDE1,9:R3-27:R3$$$V2.0), at Bcl‐2‐ΔTM [1] (3 trials), the “n (number of sites)” value was determined as 1.13 ± 0.08, the TΔS turned out to be 1.63 ± 0.03 kcal/mol and the ΔH is -5.88 ± 0.15 kcal/mol. In addition, on Bcl‐2‐ΔTM [1] (± SD, 3 trials), the ΔG is -7.51 ± 0.12 kcal/mol.
Regarding `CC[C@H](NC(=O)[C@H](CCC(=O)O)NC(=O)[C@H](CO)NC(=O)[C@H](CC(C)C)NC(=O)[C@H](CCCCN)NC(=O)[C@H](CCCCN)NC(=O)[C@@H](NC(=O)[C@H](CO)NC(=O)CNC(C)=O)[C@@H](C)O)C(=O)N[C@@H](CC(C)C)C(=O)N[C@@H](CCCCN)C(=O)N[C@@H](CCCNC(=N)N)C(=O)N[C@H](C(=O)NCC(=O)N[C@@H](CC(=O)O)C(=O)N[C@@H](CCC(=O)O)C(=O)N[C@@H](CC(C)C)C(=O)N[C@@H](CC(=O)O)C(=O)N[C@@H](CO)C(=O)N[C@@H](CC(N)=O)C(=O)N[C@@H](CCSC)C(N)=O)[C@@H](C)CC` [^AcBax‐BH3^ΔB, reference compound] (HELM PEPTIDE1{[ac].G.S.T.K.K.L.S.E.[Abu].L.K.R.I.G.D.E.L.D.S.N.M.[am]}$$$$V2.0), at Bcl‐2‐ΔTM [1] (3 trials), the “n (number of sites)” value is 0.93 ± 0.05, the TΔS is on record as 4.58 ± 0.20 kcal/mol and the ΔH is -5.43 ± 0.73 kcal/mol. In addition, the ΔG on Bcl‐2‐ΔTM [1] (± SD, 3 trials) is -10.02 ± 0.89 kcal/mol. This molecule also showed a Kd at Bcl‐2‐ΔTM [1] (binding buffer pH 8.0, reciprocal of K a, ± SD, 3 trials) of 191 ± 27.5 nM. Moreover, on Bcl‐2‐ΔTM [1] (versus ^AcScTx‐Bax^ΔΔΔ), the “difference in ΔG, complex more stable than that of ^AcScTx‐Bax^ΔΔΔ” value is listed as 1.53 kcal/mol. Besides, on Bcl‐2‐ΔTM [2], the IC50 was 141 nM.

In general, Kd refers to the constant that tells how readily two partners part at equilibrium. Low values mean a tighter complex, high ones a looser complex. The IC50 is the concentration that gives 50% inhibition.
